According to patent US3940382A, “1,2'-Di-N-substituted kanamycin B compounds” (Zaidan Hojin Biseibutsu Kagaku Kenkyu Kai, priority 1973, dated 1976):
≈ marks a conversion by molar mass, not a printed value. Where two headings read alike, the source gives them in different places.

Assays:
[1] = test system: Staphylococcus aureus FDA 209P; assay: MIC, serial dilution on nutrient agar; type: cell-based; details: FDA209P; Staphylococcus aureus FDA 209P; nutrient agar, 37°C, 18 hours; read-out: Minimum Inhibitory Concentrations
[2] = test system: Pseudomonas aeruginosa A3; assay: MIC, serial dilution on nutrient agar; type: cell-based; details: Pseudomonas aeruginosa A3; nutrient agar, 37°C, 18 hours; read-out: Minimum Inhibitory Concentrations
[3] = test system: Mycobacterium smegmatis ATCC 607; assay: MIC, serial dilution on nutrient agar; type: cell-based; details: Mycolicibacterium smegmatis, ATCC607; Mycobacterium smegmatis ATCC 607; nutrient agar, 37°C, 18 hours; read-out: Minimum Inhibitory Concentrations
[4] = test system: Escherichia coli K-12 ML 1630; assay: MIC, serial dilution on nutrient agar; type: cell-based; details: K12ML1630, 37°C, 18 hours, read-out: Minimum Inhibitory Concentrations
Method: (§1) The minimum inhibitory concentrations (mcg/ml) of 1,2'-di-N-[(S)-4-amino-2-hydroxybutyryl]-kanamycin B (abbreviated as 1,2'-AHB-KMB), 1,2'-di-N-[(S)-4-amino-2-hydroxybutyryl]-3',4'-dideoxykanamycin B (abbreviated as 1,2'-AHB-DKB), 1,2'-di-N-DL-isoseryl-3',4'-dideoxykanamycin B (abbreviated as 1,2'-IS-DKB) and 1,2'-di-N-DL-isoseryl-kanamycin B (abbreviated as 1,2'-IS-KMB) against various microorganisms were determined according to serial dilution method using nutrient agar medium at 37°C, the estimation being effected after 18 hours incubation. For comparison, the minimum inhibitory concentrations of kanamycin B (abbreviated as KMB) and 3',4'-dideoxykanamycin B (abbreviated as DKB) were also determined in the same manner as mentioned above.

Escherichia coli W677 = assay: MIC, serial dilution on nutrient agar; type: cell-based; details: Escherichia coli W677; nutrient agar, 37°C, 18 hours; read-out: Minimum Inhibitory Concentrations
Escherichia coli K-12 = assay: MIC, serial dilution on nutrient agar; type: cell-based; details: K12; Escherichia coli K-12; nutrient agar, 37°C, 18 hours; read-out: Minimum Inhibitory Concentrations
Escherichia coli NIHJ = assay: MIC, serial dilution on nutrient agar; type: cell-based; details: Escherichia coli NIHJ; nutrient agar, 37°C, 18 hours; read-out: Minimum Inhibitory Concentrations
[5] = test system: Escherichia coli JR66/W677; assay: MIC, serial dilution on nutrient agar; type: cell-based; details: read-out: Minimum Inhibitory Concentrations
[6] = test system: Escherichia coli LA290 R56; assay: MIC, serial dilution on nutrient agar; type: cell-based; details: LA290R56, 18 h, read-out: Minimum Inhibitory Concentrations
[7] = test system: Klebsiella pneumoniae 22 -3038; assay: MIC, serial dilution on nutrient agar; type: cell-based; details: 223038; Klebsiella pneumoniae 22 -3038; nutrient agar, 37°C, 18 hours; read-out: Minimum Inhibitory Concentrations
[8] = test system: Pseudomonas aeruginosa GN315; assay: MIC, serial dilution on nutrient agar; type: cell-based; details: Pseudomonas aeruginosa GN315; nutrient agar, 37°C, 18 hours; read-out: Minimum Inhibitory Concentrations
[9] = test system: Klebsiella pneumoniae PCI 602; assay: MIC, serial dilution on nutrient agar; type: cell-based; details: PCI602; Klebsiella pneumoniae PCI 602; nutrient agar, 37°C, 18 hours; read-out: Minimum Inhibitory Concentrations
[10] = test system: Escherichia coli LA290 R64; assay: MIC, serial dilution on nutrient agar; type: cell-based; details: LA290R64, 18 h, read-out: Minimum Inhibitory Concentrations
[11] = test system: Pseudomonas aeruginosa 99; assay: MIC, serial dilution on nutrient agar; type: cell-based; details: Pseudomonas aeruginosa 99; nutrient agar, 37°C, 18 hours; read-out: Minimum Inhibitory Concentrations
[12] = test system: Pseudomonas aeruginosa No.12; assay: MIC, serial dilution on nutrient agar; type: cell-based; details: read-out: Minimum Inhibitory Concentrations
[13] = test system: Pseudomonas aeruginosa TI-13; assay: MIC, serial dilution on nutrient agar; type: cell-based; details: TI13; Pseudomonas aeruginosa TI-13; nutrient agar, 37°C, 18 hours; read-out: Minimum Inhibitory Concentrations
[14] = test system: Escherichia coli K-12 ML 1629; assay: MIC, serial dilution on nutrient agar; type: cell-based; details: K12ML1629; Escherichia coli K-12 ML 1629; nutrient agar, 37°C, 18 hours; read-out: Minimum Inhibitory Concentrations
[15] = test system: Escherichia coli LA290 R55; assay: MIC, serial dilution on nutrient agar; type: cell-based; details: LA290R55, 18 h, read-out: Minimum Inhibitory Concentrations
[16] = test system: Escherichia coli K-12 ML 1410; assay: MIC, serial dilution on nutrient agar; type: cell-based; details: K12ML1410; Escherichia coli K-12 ML 1410; nutrient agar, 37°C, 18 hours; read-out: Minimum Inhibitory Concentrations
Sarcina lutea PCI 1001 = assay: MIC, serial dilution on nutrient agar; type: cell-based; details: Micrococcus luteus, PCI1001; Sarcina lutea PCI 1001; nutrient agar, 37°C, 18 hours; read-out: Minimum Inhibitory Concentrations
Salmonella typhosa T-63 = assay: MIC, serial dilution on nutrient agar; type: cell-based; details: Salmonella enterica, 18 h, read-out: Minimum Inhibitory Concentrations
[17] = test system: Bacillus subtilis PCI 219; assay: MIC, serial dilution on nutrient agar; type: cell-based; details: PCI219; Bacillus subtilis PCI 219; nutrient agar, 37°C, 18 hours; read-out: Minimum Inhibitory Concentrations
[18] = test system: Staphylococcus aureus Terejima; assay: MIC, serial dilution on nutrient agar; type: cell-based; details: Staphylococcus aureus Terejima; nutrient agar, 37°C, 18 hours; read-out: Minimum Inhibitory Concentrations
[19] = test system: Shigella flexneri 4b JS 11811; assay: MIC, serial dilution on nutrient agar; type: cell-based; details: 4BJS11811, 37°C, 18 hours, read-out: Minimum Inhibitory Concentrations
Method: as §1

Shigella sonnei JS 11746 = assay: MIC, serial dilution on nutrient agar; type: cell-based; details: JS11746, 37°C, 18 hours, read-out: Minimum Inhibitory Concentrations
Method: as §1

[20] = test system: Staphylococcus aureus Smith; assay: MIC, serial dilution on nutrient agar; type: cell-based; details: Staphylococcus aureus Smith; nutrient agar, 37°C, 18 hours; read-out: Minimum Inhibitory Concentrations
[21] = test system: Escherichia coli K-12 ML 1410 R81; assay: MIC, serial dilution on nutrient agar; type: cell-based; details: 18 h, read-out: Minimum Inhibitory Concentrations
Bacillus anthracis = assay: microbe, parasite or virus in culture; type: cell-based; details: 18 h, read-out: Minimum Inhibitory Concentrations
[22] = test system: Corynebacterium bovis 1810; assay: MIC, serial dilution on nutrient agar; type: cell-based; details: Corynebacterium bovis 1810; nutrient agar, 37°C, 18 hours; read-out: Minimum Inhibitory Concentrations
[23] = test system: Salmonella enteritidis 1891; assay: MIC, serial dilution on nutrient agar; type: cell-based; details: Salmonella enterica; Salmonella enteritidis 1891; nutrient agar, 37°C, 18 hours; read-out: Minimum Inhibitory Concentrations
[24] = test system: Bacillus cereus ATCC 10702; assay: MIC, serial dilution on nutrient agar; type: cell-based; details: ATCC10702; Bacillus cereus ATCC 10702; nutrient agar, 37°C, 18 hours; read-out: Minimum Inhibitory Concentrations
Proteus vulgaris OX 19 = assay: MIC, serial dilution on nutrient agar; type: cell-based; details: OX19; Proteus vulgaris OX 19; nutrient agar, 37°C, 18 hours; read-out: Minimum Inhibitory Concentrations
[25] = test system: Bacillus subtilis NRRL B-558; assay: MIC, serial dilution on nutrient agar; type: cell-based; details: NRRLB558; Bacillus subtilis NRRL B-558; nutrient agar, 37°C, 18 hours; read-out: Minimum Inhibitory Concentrations
[26] = test system: Shigella dysenteriae JS 11910; assay: MIC, serial dilution on nutrient agar; type: cell-based; details: JS11910, 18 h, read-out: Minimum Inhibitory Concentrations
drug-resistant bacteria = details: cited from earlier work
[27] = Escherichia coli JR66/W677, nutrient agar, 37°C, 18 hours
[28] = Pseudomonas aeruginosa No.12, nutrient agar, 37°C, 18 hours

With `NCC(O)C(=O)N[C@@H]1CC[C@@H](CN)O[C@@H]1O[C@H]1[C@H](O)[C@@H](O[C@H]2O[C@H](CO)[C@@H](O)[C@H](N)[C@H]2O)[C@H](NC(=O)C(O)CN)C[C@@H]1N` (mixture of isomers) [1,2'-IS-DKB, 1,2'-di-N-DL-isoseryl-3',4'-dideoxykanamycin B] the MIC [1] was 1.56 µg/mL, the MIC [2] was 6.25 µg/mL and the MIC [3] was 1.56 µg/mL. For the same molecule, the MIC [4] was 6.25 µg/mL, the MIC (Escherichia coli W677) was 3.13 µg/mL and the MIC (Escherichia coli K-12) was 6.25 µg/mL. It also gave an MIC (Escherichia coli NIHJ) of 6.25 µg/mL, an MIC [5, 27] of 12.5 µg/mL and an MIC [6] of 6.25 µg/mL. For the same molecule, the MIC [7] was 12.5 µg/mL, the MIC [8] was greater than 100 µg/mL and the MIC [9] was 3.13 µg/mL. It also gave an MIC [10] of 6.25 µg/mL, an MIC [11] of 50 µg/mL and an MIC [12, 28] of 25 µg/mL. For the same molecule, the MIC [13] was 12.5 µg/mL, the MIC [14] was 6.25 µg/mL and the MIC [15] was 6.25 µg/mL. The MIC [16] was 6.25 µg/mL.

Molecule `NCC(O)C(=O)N[C@H]1[C@@H](O[C@H]2[C@H](O)[C@@H](O[C@H]3O[C@H](CO)[C@@H](O)[C@H](N)[C@H]3O)[C@H](NC(=O)C(O)CN)C[C@@H]2N)O[C@H](CN)[C@@H](O)[C@@H]1O` (mixture of isomers) [1,2'-IS-KMB, 1,2'-di-N-DL-isoseryl-kanamycin B] has an MIC [1] of 3.13 µg/mL, an MIC [2] of 12.5 µg/mL and an MIC [3] of 1.56 µg/mL. For the same molecule, the MIC [4] was 6.25 µg/mL, the MIC (Escherichia coli W677) was 3.13 µg/mL and the MIC (Escherichia coli K-12) was 6.25 µg/mL. For the same molecule, the MIC (Escherichia coli NIHJ) was 6.25 µg/mL, the MIC [5, 27] was 25 µg/mL and the MIC [6] was 6.25 µg/mL. It also gave an MIC [7] of 12.5 µg/mL, an MIC [8] greater than 100 µg/mL and an MIC [9] of 3.13 µg/mL. For the same molecule, the MIC [10] was 6.25 µg/mL, the MIC [11] was 50 µg/mL and the MIC [12, 28] was 25 µg/mL. The MIC [13] was 12.5 µg/mL, the MIC [14] was 6.25 µg/mL and the MIC [15] was 6.25 µg/mL. The MIC [16] was 6.25 µg/mL.

Work on `NCC[C@H](O)C(=O)N[C@@H]1CC[C@@H](CN)O[C@@H]1O[C@H]1[C@H](O)[C@@H](O[C@H]2O[C@H](CO)[C@@H](O)[C@H](N)[C@H]2O)[C@H](NC(=O)[C@@H](O)CCN)C[C@@H]1N` [1,2'-AHB-DKB, 1,2'-di-N-[(S)-4-amino-2-hydroxybutyryl]-3',4'-dideoxykanamycin B] yielded an MIC [1] of 0.78 µg/mL (≈ 1.19 µM), an MIC (Sarcina lutea PCI 1001) of 1.56 µg/mL (≈ 2.39 µM) and an MIC [2] of 25 µg/mL (≈ 38.2 µM). The MIC (Salmonella typhosa T-63) was 0.78 µg/mL (≈ 1.19 µM), the MIC [3] was 0.2 µg/mL (≈ 0.306 µM) and the MIC [17] was less than 0.2 µg/mL. It also gave an MIC [18] of less than 0.2 µg/mL, an MIC [4] of 3.13 µg/mL (≈ 4.79 µM) and an MIC [19] of 6.25 µg/mL (≈ 9.56 µM). The MIC (Shigella sonnei JS 11746) was 6.25 µg/mL (≈ 9.56 µM), the MIC (Escherichia coli W677) was 1.56 µg/mL (≈ 2.39 µM) and the MIC (Escherichia coli K-12) was 1.56 µg/mL (≈ 2.39 µM). The MIC [20] was 0.2 µg/mL (≈ 0.306 µM), the MIC (Escherichia coli NIHJ) was 3.13 µg/mL (≈ 4.79 µM) and the MIC [21] was 1.56 µg/mL (≈ 2.39 µM). It also gave an MIC ([5]; Escherichia coli, JR66/W677, 18 h) of 6.25 µg/mL (≈ 9.56 µM), an MIC (Bacillus anthracis) of less than 0.2 µg/mL and an MIC [22] of 0.78 µg/mL (≈ 1.19 µM). The MIC [6] was 0.78 µg/mL (≈ 1.19 µM), the MIC [23] was 1.56 µg/mL (≈ 2.39 µM) and the MIC [24] was 1.56 µg/mL (≈ 2.39 µM). For the same molecule, the MIC [7] was 1.56 µg/mL (≈ 2.39 µM), the MIC [8] was 100 µg/mL (≈ 153 µM) and the MIC [9] was 0.78 µg/mL (≈ 1.19 µM). It also gave an MIC [10] of 0.78 µg/mL (≈ 1.19 µM), an MIC (Proteus vulgaris OX 19) of 0.78 µg/mL (≈ 1.19 µM) and an MIC [25] of 0.2 µg/mL (≈ 0.306 µM). For the same molecule, the MIC [11] was 50 µg/mL (≈ 76.5 µM), the MIC ([12]; Pseudomonas aeruginosa, NO.12, 18 h) was 6.25 µg/mL (≈ 9.56 µM) and the MIC [13] was 12.5 µg/mL (≈ 19.1 µM). It also gave an MIC [14] of 3.13 µg/mL (≈ 4.79 µM), an MIC [15] of 0.78 µg/mL (≈ 1.19 µM) and an MIC [16] of 3.13 µg/mL (≈ 4.79 µM). The MIC [26] was 6.25 µg/mL (≈ 9.56 µM).

In the case of `NC[C@@H]1CC[C@@H](N)[C@@H](O[C@H]2[C@H](O)[C@@H](O)[C@H](N)C[C@@H]2N)O1` [3',4'-dideoxyneamine], the “antibacterial activity against the drug-resistant bacteria” value (drug-resistant bacteria) is given as “improved antibacterial activity”.
